Experimental data as given in the NIST ThermoML archive (doi:10.1021/je2008582).
Numbers after ± are expanded uncertainties.

Settings: Liquid, Vibrating tube method

CCCCC/C=C\C/C=C\CCCCCCCC(=O)OC [methyl (Z,Z)-9,12-octadecadienate]
Settings	mass density [kg/m3]
270 K, 490 kPa	904.6 ± 0.8
270 K, 990 kPa	904.9 ± 0.8
270 K, 1990 kPa	905.4 ± 0.8
270 K, 3000 kPa	905.9 ± 0.8
270 K, 3990 kPa	906.5 ± 0.8
270 K, 5000 kPa	907 ± 0.8
270 K, 10000 kPa	909.6 ± 0.8
270 K, 20000 kPa	914.6 ± 0.9
270 K, 29990 kPa	919.3 ± 0.9
270 K, 39990 kPa	923.8 ± 0.9
270 K, 49970 kPa	928.2 ± 0.9
290 K, 500 kPa	889.7 ± 0.8
290 K, 990 kPa	890 ± 0.8
290 K, 1990 kPa	890.6 ± 0.8
290 K, 2990 kPa	891.2 ± 0.8
290 K, 3990 kPa	891.8 ± 0.8
290 K, 5000 kPa	892.4 ± 0.8
290 K, 9990 kPa	895.2 ± 0.8
290 K, 19990 kPa	900.7 ± 0.9
290 K, 30000 kPa	905.8 ± 0.9
290 K, 39990 kPa	910.7 ± 0.9
290 K, 49970 kPa	915.3 ± 0.9
310 K, 500 kPa	875.1 ± 0.8
310 K, 1000 kPa	875.4 ± 0.8
310 K, 1990 kPa	876.1 ± 0.8
310 K, 2990 kPa	876.7 ± 0.8
310 K, 3990 kPa	877.4 ± 0.8
310 K, 4990 kPa	878 ± 0.8
310 K, 9990 kPa	881.1 ± 0.9
310 K, 20000 kPa	887 ± 0.9
310 K, 30000 kPa	892.5 ± 0.9
310 K, 39990 kPa	897.8 ± 0.9
310 K, 49990 kPa	902.8 ± 0.9
330 K, 490 kPa	860.6 ± 0.8
330 K, 990 kPa	860.9 ± 0.8
330 K, 1990 kPa	861.6 ± 0.8
330 K, 2990 kPa	862.4 ± 0.8
330 K, 3990 kPa	863.1 ± 0.8
330 K, 4990 kPa	863.8 ± 0.8
330 K, 9990 kPa	867.1 ± 0.9
330 K, 19990 kPa	873.5 ± 0.9
330 K, 29980 kPa	879.5 ± 0.9
330 K, 39990 kPa	885.1 ± 0.9
330 K, 50000 kPa	890.4 ± 0.9
350 K, 500 kPa	846.2 ± 0.8
350 K, 1000 kPa	846.6 ± 0.8
350 K, 1990 kPa	847.4 ± 0.8
350 K, 2990 kPa	848.2 ± 0.8
350 K, 3990 kPa	848.9 ± 0.8
350 K, 5000 kPa	849.7 ± 0.8
350 K, 9990 kPa	853.4 ± 0.9
350 K, 19990 kPa	860.3 ± 0.9
350 K, 29990 kPa	866.7 ± 0.9
350 K, 40000 kPa	872.7 ± 0.9
350 K, 49980 kPa	878.4 ± 0.9
370 K, 490 kPa	831.6 ± 0.8
370 K, 990 kPa	832.1 ± 0.8
370 K, 1990 kPa	832.9 ± 0.8
370 K, 2990 kPa	833.8 ± 0.8
370 K, 4000 kPa	834.6 ± 0.8
370 K, 5000 kPa	835.5 ± 0.8
370 K, 10000 kPa	839.5 ± 0.9
370 K, 19990 kPa	847 ± 0.9
370 K, 29990 kPa	854 ± 0.9
370 K, 39990 kPa	860.4 ± 0.9
370 K, 49980 kPa	866.4 ± 0.9
390 K, 490 kPa	817.1 ± 0.8
390 K, 990 kPa	817.6 ± 0.8
390 K, 1990 kPa	818.5 ± 0.8
390 K, 3000 kPa	819.5 ± 0.8
390 K, 3990 kPa	820.4 ± 0.8
390 K, 4990 kPa	821.3 ± 0.8
390 K, 9990 kPa	825.8 ± 0.9
390 K, 20000 kPa	834 ± 0.9
390 K, 29990 kPa	841.4 ± 0.9
390 K, 40000 kPa	848.3 ± 0.9
390 K, 49990 kPa	854.7 ± 0.9
410 K, 490 kPa	802.5 ± 0.8
410 K, 1000 kPa	803 ± 0.8
410 K, 2000 kPa	804.1 ± 0.8
410 K, 2990 kPa	805.1 ± 0.8
410 K, 3990 kPa	806.2 ± 0.8
410 K, 4990 kPa	807.2 ± 0.9
410 K, 9990 kPa	812.1 ± 0.9
410 K, 19990 kPa	821 ± 0.9
410 K, 29990 kPa	829.1 ± 0.9
410 K, 40000 kPa	836.5 ± 0.9
410 K, 49970 kPa	843.3 ± 1
430 K, 490 kPa	787.5 ± 0.8
430 K, 1000 kPa	788.1 ± 0.8
430 K, 1990 kPa	789.3 ± 0.8
430 K, 2990 kPa	790.5 ± 0.8
430 K, 3990 kPa	791.6 ± 0.9
430 K, 5000 kPa	792.7 ± 0.9
430 K, 9990 kPa	798.1 ± 0.9
430 K, 19990 kPa	807.9 ± 0.9
430 K, 29990 kPa	816.6 ± 0.9
430 K, 40000 kPa	824.5 ± 0.9
430 K, 50010 kPa	831.8 ± 1
450 K, 490 kPa	772.5 ± 0.8
450 K, 990 kPa	773.2 ± 0.8
450 K, 2000 kPa	774.5 ± 0.8
450 K, 2990 kPa	775.8 ± 0.9
450 K, 4000 kPa	777.1 ± 0.9
450 K, 4990 kPa	778.3 ± 0.9
450 K, 10000 kPa	784.3 ± 0.9
450 K, 19990 kPa	794.9 ± 0.9
450 K, 30000 kPa	804.3 ± 0.9
450 K, 39990 kPa	812.8 ± 1
450 K, 49980 kPa	820.6 ± 1
470 K, 500 kPa	757.5 ± 0.8
470 K, 990 kPa	758.3 ± 0.8
470 K, 1990 kPa	759.7 ± 0.9
470 K, 3000 kPa	761.2 ± 0.9
470 K, 3990 kPa	762.6 ± 0.9
470 K, 4990 kPa	764 ± 0.9
470 K, 9990 kPa	770.6 ± 0.9
470 K, 19990 kPa	782.2 ± 0.9
470 K, 29990 kPa	792.4 ± 0.9
470 K, 39990 kPa	801.5 ± 1
470 K, 49980 kPa	809.7 ± 1
